Measured values taken from patent US20250098679A1, “HERBICIDAL PYRIDONE DERIVATIVES” (SYNGENTA CROP PROTECTION AG, priority 2021, published 2025).

Key:
Format in all cases: in vivo
[1] = tested on: Zea mays (ZEAMX); test: Pre-emergence Test, Zea mays (ZEAMX); settings: evaluated after 13 days
[2] = tested on: Echinochloa crus-galli (ECHCG); test: Post-emergence Test, Echinochloa crus-galli (ECHCG); design: key to percentage damage caused to the plant, ECHCG (five-point scale): 5=81-100%, 4=61-80%, 3=41-60%, 2=21-40%, 1=0-20% damage; settings: evaluated after 13 days
Outline: (§1)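 Scores are percentage plant damage on a 1–5 scale (1=0-20%, 2=21-40%, 3=41-60%, 4=61-80%, 5=81-100%), read 13 days after treatment. Pots received a spray at 1000 g/ha unless otherwise stated, formulated in acetone/water (50:50) containing 0.5% Tween 20.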

[3] = tested on: Amaranthus retoflexus (AMARE); test: Post-emergence Test, Amaranthus retoflexus (AMARE); design: key to percentage damage caused to the plant, AMARE (five-point scale): 5=81-100%, 4=61-80%, 3=41-60%, 2=21-40%, 1=0-20% damage; settings: evaluated after 13 days
Outline: as §1

[4] = tested on: Ipomoea hederacea (IPOHE); test: Pre-emergence Test, Ipomoea hederacea (IPOHE); settings: evaluated after 13 days
[5] = tested on: Amaranthus palmeri (AMAPA); test: Post-emergence Test, Amaranthus palmeri (AMAPA); design: key: 5=81-100%, 4=61-80%, 3=41-60%, 2=21-40%, 1=0-20% damage; settings: evaluated after 13 days
Outline: as §1

[6] = tested on: Zea mays (ZEAMX); test: Post-emergence Test, Zea mays (ZEAMX); design: key to percentage damage caused to the plant, ZEAMX (five-point scale): 5=81-100%, 4=61-80%, 3=41-60%, 2=21-40%, 1=0-20% damage; settings: evaluated after 13 days
Outline: as §1

[7] = tested on: Echinochloa crus-galli (ECHCG); test: Pre-emergence Test, Echinochloa crus-galli (ECHCG); settings: evaluated after 13 days
[8] = tested on: Amaranthus palmeri (AMAPA); test: Pre-emergence Test, Amaranthus palmeri (AMAPA); settings: evaluated after 13 days
[9] = tested on: Amaranthus retoflexus (AMARE); test: Pre-emergence Test, Amaranthus retoflexus (AMARE); settings: evaluated after 13 days
[10] = tested on: Ipomoea hederacea (IPOHE); test: Post-emergence Test, Ipomoea hederacea (IPOHE); design: key to percentage damage caused to the plant, IPOHE (five-point scale): 5=81-100%, 4=61-80%, 3=41-60%, 2=21-40%, 1=0-20% damage; settings: evaluated after 13 days
Outline: as §1

[11] = tested on: Setaria faberi (SETFA); test: Post-emergence Test, Setaria faberi (SETFA); design: key to percentage damage caused to the plant, SETFA (five-point scale): 5=81-100%, 4=61-80%, 3=41-60%, 2=21-40%, 1=0-20% damage; settings: 1000 g/ha, evaluated after 13 days
Outline: as §1

In the case of CCn1c(Cn2ccc(COC)n2)cc(=O)c(C(=O)O)c1-c1ccc(Cl)c(Cl)c1 [Compound 162, 2-(3,4-dichlorophenyl)-1-ethyl-6-[[3-(methoxymethyl)pyrazol-1-yl]methyl]-4-oxo-pyridine-3-carboxylic acid], the “Pre-emergence Test ZEAMX, percentage damage caused to the plant (five-point scale)” value ([1]; 250 g/Ha (*)) is reported as 1 (1=0-20%), the “Pre-emergence Test ZEAMX, percentage damage caused to the plant (five-point scale)” value ([1]; 1000 g/ha) is reported as 4 (4=61-80%) and the “percentage damage caused to the plant, ECHCG (five-point scale)” value ([2]; 250 g/Ha) is reported as 3 (3=41-60%). The “percentage damage caused to the plant, AMARE (five-point scale)” value ([3]; 250 g/Ha) was 1 (1=0-20%), the “percentage damage caused to the plant, AMARE (five-point scale)” value ([3]; 1000 g/ha) was 2 (2=21-40%) and the “Pre-emergence Test IPOHE, percentage damage caused to the plant (five-point scale)” value ([4]; 250 g/Ha (*)) was 1 (1=0-20%). For the same compound, the “Pre-emergence Test IPOHE, percentage damage caused to the plant (five-point scale)” value ([4]; 1000 g/ha) was 4 (4=61-80%), the “percentage damage caused to the plant, AMAPA (five-point scale)” value ([5]; 250 g/Ha) was 1 (1=0-20%) and the “percentage damage caused to the plant, AMAPA (five-point scale)” value ([5]; 1000 g/ha) was 2 (2=21-40%). The “percentage damage caused to the plant, ZEAMX (five-point scale)” value ([6]; 250 g/Ha) was 1 (1=0-20%), the “percentage damage caused to the plant, ZEAMX (five-point scale)” value ([6]; 1000 g/ha) was 3 (3=41-60%) and the “Pre-emergence Test ECHCG, percentage damage caused to the plant (five-point scale)” value ([7]; 250 g/Ha (*)) was 3 (3=41-60%). The “Pre-emergence Test ECHCG, percentage damage caused to the plant (five-point scale)” value ([7]; 1000 g/ha) was 5 (5=81-100%), the “Pre-emergence Test AMAPA, percentage damage caused to the plant (five-point scale)” value ([8]; 250 g/Ha (*)) was 0 and the “Pre-emergence Test AMAPA, percentage damage caused to the plant (five-point scale)” value ([8]; 1000 g/ha) was 1 (1=0-20%). The “Pre-emergence Test AMARE, percentage damage caused to the plant (five-point scale)” value ([9]; 250 g/Ha (*)) was 1 (1=0-20%), the “Pre-emergence Test AMARE, percentage damage caused to the plant (five-point scale)” value ([9]; 1000 g/ha) was 3 (3=41-60%) and the “percentage damage caused to the plant, IPOHE (five-point scale)” value ([10]; 250 g/Ha) was 2 (2=21-40%). For the same compound, the “percentage damage caused to the plant, IPOHE (five-point scale)” value ([10]; 1000 g/ha) was 4 (4=61-80%) and the “percentage damage caused to the plant, SETFA (five-point scale)” value [11] was 5 (5=81-100%).

With CCn1c(Cn2ccc(-c3nccs3)n2)cc(=O)c(C(=O)O)c1-c1ccc(Cl)c(Cl)c1 [Compound 201, 2-(3,4-dichlorophenyl)-1-ethyl-4-oxo-6-[(3-thiazol-2-ylpyrazol-1-yl)methyl]pyridine-3-carboxylic acid] the “Pre-emergence Test ZEAMX, percentage damage caused to the plant (five-point scale)” value ([1]; 1000 g/ha) was 0, the “Post-emergence Test ECHCG, percentage damage caused to the plant (five-point scale)” value ([2]; 250 g/Ha (*)) was 1 (1=0-20%) and the “Post-emergence Test AMARE, percentage damage caused to the plant (five-point scale)” value ([3]; 250 g/Ha (*)) was 0. For the same compound, the “Post-emergence Test AMARE, percentage damage caused to the plant (five-point scale)” value ([3]; 1000 g/ha) was 2 (2=21-40%), the “Pre-emergence Test IPOHE, percentage damage caused to the plant (five-point scale)” value ([4]; 1000 g/ha) was 1 (1=0-20%) and the “Post-emergence Test AMAPA, percentage damage caused to the plant (five-point scale)” value ([5]; 250 g/Ha (*)) was 0. For the same compound, the “Post-emergence Test AMAPA, percentage damage caused to the plant (five-point scale)” value ([5]; 1000 g/ha) was 1 (1=0-20%), the “Post-emergence Test ZEAMX, percentage damage caused to the plant (five-point scale)” value ([6]; 250 g/Ha (*)) was 0 and the “Post-emergence Test ZEAMX, percentage damage caused to the plant (five-point scale)” value ([6]; 1000 g/ha) was 1 (1=0-20%). For the same compound, the “Pre-emergence Test ECHCG, percentage damage caused to the plant (five-point scale)” value ([7]; 1000 g/ha) was 0, the “Pre-emergence Test AMAPA, percentage damage caused to the plant (five-point scale)” value ([8]; 1000 g/ha) was 0 and the “Pre-emergence Test AMARE, percentage damage caused to the plant (five-point scale)” value ([9]; 1000 g/ha) was 0. The “Post-emergence Test IPOHE, percentage damage caused to the plant (five-point scale)” value ([10]; 250 g/Ha (*)) was 0, the “Post-emergence Test IPOHE, percentage damage caused to the plant (five-point scale)” value ([10]; 1000 g/ha) was 2 (2=21-40%) and the “Post-emergence Test SETFA, percentage damage caused to the plant (five-point scale)” value [11] was 2 (2=21-40%).

For CCOCc1ccnn1Cc1cc(=O)c(C(=O)O)c(-c2ccc(Cl)c(Cl)c2)n1CC [Compound 188, 2-(3,4-dichlorophenyl)-6-[[5-(ethoxymethyl)pyrazol-1-yl]methyl]-1-ethyl-4-oxo-pyridine-3-carboxylic acid], the “percentage damage caused to the plant, ECHCG (five-point scale)” value ([2]; 1000 g/ha) was 0, the “percentage damage caused to the plant, AMARE (five-point scale)” value ([3]; 1000 g/ha) was 0 and the “percentage damage caused to the plant, AMAPA (five-point scale)” value ([5]; 1000 g/ha) was 1 (1=0-20%). For the same compound, the “percentage damage caused to the plant, ZEAMX (five-point scale)” value ([6]; 1000 g/ha) was 0, the “percentage damage caused to the plant, IPOHE (five-point scale)” value ([10]; 1000 g/ha) was 1 (1=0-20%) and the “percentage damage caused to the plant, SETFA (five-point scale)” value [11] was 0.
